{
  "source": "paper PMC8674134",
  "about": "“Safety and efficacy of avapritinib in advanced systemic mastocytosis: the phase 1 EXPLORER trial” (Nature Medicine, 2021)",
  "test_system": "SM-associated symptoms",
  "experiment": "On-study corticosteroid usage",
  "type": "in vivo, human",
  "procedure": "At baseline, approximately one-third of patients overall (29 patients; 34%) were using corticosteroids. After baseline, as a result of improvement in SM-associated symptoms, 19 patients (66%) reduced their corticosteroid usage, of whom 12 (41%) patients discontinued corticosteroid use entirely, while 7 (24%) were able to reduce the dose.\nCorticosteroid treatment, not exceeding doses administered during screening, was permitted; doses higher than 20 mg daily prednisone equivalent were avoided, and prolonged treatment (>14 d) with high-dose corticosteroids rendered patients ineligible for response assessment.",
  "data": [
    {"smiles": "Cn1cc(-c2cc3c(N4CCN(c5ncc([C@@](C)(N)c6ccc(F)cc6)cn5)CC4)ncnn3c2)cn1", "note": "[avapritinib]", "values": [
      {"measurement": "Patients able to reduce the corticosteroid dose", "setting": "7 of 29 patients using corticosteroids at baseline", "value": 24, "unit": "%"},
      {"measurement": "Patients who discontinued corticosteroid use entirely", "setting": "12 of 29 patients using corticosteroids at baseline", "value": 41, "unit": "%"},
      {"measurement": "Patients who reduced their corticosteroid usage", "setting": "19 of 29 patients using corticosteroids at baseline", "value": 66, "unit": "%"}
    ]}
  ]
}
